# Measurements taken from US11191746B2, “Composition for inhibiting a growth of cancer stem cells comprising ciclesonide” (JEJU NATIONAL UNIVERSITY INDUSTRY-ACADEMIC COOPERATION …, priority 2016, dated 2021).
# Key:
# STAT3 = assay: Electrophoretic mobility shift assay (EMSA) of mammosphere nuclear extract; assay type: cell-based, human; details: ciclesonide-treated mammosphere nuclear extract
# [1] = system: MCF-7 cell xenograft tumor; assay: Breast cancer xenograft model in NOD-SCID female nude mice; assay type: in vivo; details: MCF-7 xenograft, 10 mg/kg
# Procedure: A total of 12 NOD-SCID (BALB/cSIc (nu/nu)) female nude mice producing breast cancer cells were divided into two groups. […] The volume of tumors of each control mouse was measured every three days and calculated by the following equation: (width×length^2)/2. The other six nude mice received neoadjuvant chemotherapy using a test drug by infusion at an optimum dose of 10 mg/kg/day.
# MCF-7 cells [2] = assay: CD44 and CD24 expression flow cytometric analysis; assay type: cell-based, human; details: 24 hours, FACS
# Procedure: The expression of CD44 and CD24 in MCF-7 cells was measured by FACS analysis. After isolating and harvesting cells using 1× trypsin/EDTA, one million cells were suspended, labeled with an FITC-conjugated anti-human CD44 antibody and a PE-conjugated anti-human CD24 antibody (BD Pharmingen, San Diego, Calif., USA), and incubated at 4° C. for 30 minutes. The cells were then washed three times with 1× PBS and analyzed by flow cytometry (Accuri C6, BD, San Diego, Calif., USA).
# IL-8 = assay: Human inflammatory cytokine assay (CBA), tumorspheres; assay type: cell-based; details: A549 tumorspheres
# Procedure: Mixed capture beads were vortexed and 50 μl of beads were added to assay tubes. 50 μl of human inflammatory cytokine standard and the cultured tumorsphere solution were added to the assay tubes, and then mixed with a cytokine PE solution. After 3 hours, the mixed solution was washed and analyzed by flow cytometry (Accuri C6, BD, San Diego, Calif., USA).
# mammospheres = assay: Mammosphere proliferation (cell counting); assay type: cell-based, human; details: mammospheres treated 2 days, single cells replated and counted
# Procedure: FIG. 6B illustrates the effect of ciclesonide on mammosphere growth wherein ciclesonide inhibits the growth of mammospheres, mammospheres having been treated with ciclesonide or DMSO for 2 days were separated into single cells and plated in 6 cm dishes at the same density. 24 hours after plating, the cells were counted, on days 2 and 3, the cells were counted three times, and plotted as mean values, and the data was expressed as the mean±SD for the three independent experimental results. *p<0.05 vs. DMSO-treated control.
# MCF-7 cells [3] = assay: ALDEFLUOR analysis, breast cancer cells; assay type: cell-based, human; details: 24 hours
# Procedure: (§1) An ALDEFLUOR analysis system provides a novel approach to the identification, evaluation, and isolation of CSCs based on the activity of aldehyde dehydrogenase (ALDH). BODIPY-aminoacetaldehyde as an active reagent was added to breast cancer cells or lung cancer cells, and converted into fluorescent BODIPY-aminoacetate by ALDH. Diethylaminobenzaldehyde (DEAB), which is an ALDH inhibitor, was used as a negative control. MCF-7 cells or A549 cells were treated with 10 μM or 20 μM ciclesonide for 24 hours, and the proportion of ALDH-positive cells was analyzed by ALDEFLUOR assay. ALDH-positive and negative cells were sorted by C6 Accuri flow cytometry (BD Bioscience).
# A549 cells [4] = assay: ALDEFLUOR analysis, lung cancer cells; assay type: cell-based, human; details: 24 hours
# Procedure: as §1
# Oct4 = assay: Real-time PCR of self-renewing genes in mammospheres; assay type: cell-based, human; details: RT-PCR, β-actin internal control
# Procedure: (§2) The levels of transcripts were measured with a One Step SYBR PrimeScript RT-PCR kit (Takara, Tokyo, Japan) using SYBR green as a double-stranded DNA-specific dye in accordance with the manufacturer's protocol. One-step RT-PCR was performed on 1 μg of total RNA, 10 μl of 2× One Step SYBR RT-PCR Buffer IV, and 1 μl of PrimeScript 1 step Enzyme Mix II using PCR forward and reverse primers of each of CD44, NANOG, OCT4, C-myc, Sox2, Snail, and β-actin at a final volume of 20 μl per reaction.
# (§3) The relative expression level of mRNA of the target gene was calculated using a comparative CT method. At least three independent PCR procedures were performed in accordance with statistical analysis. PCR products were normalized with the […] gene as an internal control.
# Sox2 = assay: as above; assay type: cell-based, human; details: RT-PCR, β-actin internal control
# Procedure: as §2, §3
# Nanog = assay: as above; assay type: cell-based, human; details: RT-PCR, β-actin internal control
# Procedure: as §2, §3
# C-myc = assay: as above; assay type: cell-based, human; details: RT-PCR, β-actin internal control
# Procedure: as §2, §3
# CD44 = assay: as above; assay type: cell-based, human; details: RT-PCR, β-actin internal control
# Procedure: as §2, §3
# MDA-MB-231 cells [5] = assay: Caspase-3/7 analysis (Caspase-Glo 3/7); assay type: cell-based, human; details: MDA-MB-231, 40 μM and 80 μM, 24 hours
# Procedure: (§4) Breast cancer cells and lung cancer cells were treated with ciclesonide at different concentrations for 24 hours. Caspase-3/7 activity was measured in accordance with the manufacturer's protocol for the Caspase-Glo 3/7 kit (Promega, Wisconsin, USA). 100 μl of a Caspase-Glo 3/7 reagent was added to a 96-well plate where cancer cells were cultured. The plate was covered with a plate sealer, followed by culture at room temperature for 1 hour, and measured using a plate-reading luminometer, GloMax® Explorer (Promega, Wisconsin, USA).
# A549 cells [6] = assay: Caspase-3/7 analysis (Caspase-Glo 3/7); assay type: cell-based, human; details: A549, 80 μM, 24 hours
# Procedure: as §4
# MCF-7 cells [7] = assay: Breast cancer cell proliferation assay (MTS); assay type: cell-based, human; details: MCF-7, 48 hours after treatment
# Procedure: (§5) The proliferation rates of MCF-7 cells and MDA-MB-231 cells were measured using a CellTiter 96® aqueous one solution cell proliferation kit. The MCF-7 cells or the MDA-MB-231 cells were cultured in a 96-well plate for 48 hours in the presence of ciclesonide at concentrations of 0 μM, 5 μM, 10 μM, 20 μM, 40 μM, and 80 μM. In accordance with the manufacturer's protocol, absorbance at 490 nm was determined using a 96-well plate reader (Dynex Revelation, Dynex Ltd., Billingshurst, UK). Respective data was determined by measuring three sets.
# MDA-MB-231 cells [8] = assay: Breast cancer cell proliferation assay (MTS); assay type: cell-based, human; details: MDA-MB-231, 48 hours after treatment
# Procedure: as §5
# MDA-MB-231 cells [9] = assay: Apoptosis analysis by fluorescence staining (Hoechst 33258); assay type: cell-based, human; details: MDA-MB-231, 20 μM, 24 hours
# Procedure: (§6) MDA-MB-231 cells were treated with 20 μM ciclesonide or A549 cells were treated with 30 μM ciclesonide, for 24 hours and the cells were incubated in 10 mg/ml of a Hoechst 33258 solution at 37° C. for 30 minutes. Subsequently, the cells were observed using a fluorescence microscope.
# A549 cells [10] = assay: as above; assay type: cell-based, human; details: A549, 30 μM, 24 hours
# Procedure: as §6
compound,measurement,setting,value
CC(C)C(=O)OCC(=O)[C@@]12O[C@H](C3CCCCC3)O[C@@H]1C[C@H]1[C@@H]3CCC4=CC(=O)C=C[C@]4(C)[C@H]3[C@@H](O)C[C@@]12C [ciclesonide],binding between the biotin-labeled SIE probe and Stat3,STAT3,inhibited
same,tumor volume vs control not treated,[1],smaller
same,tumor weight vs control not treated,[1],smaller
same,subpopulation expressing CD44high/CD24low,MCF-7 cells [2],reduced
same,production level of IL-8,IL-8,reduced
same,proliferation of mammospheres,mammospheres,significantly reduced
same,proportion of ALDH-positive breast cancer cells,MCF-7 cells [3],reduced
same,proportion of ALDH-positive lung cancer cells,A549 cells [4],reduced
same,expression of Oct4,Oct4,reduced
same,expression of Sox2,Sox2,reduced
same,expression of Nanog,Nanog,reduced
same,expression of C-myc,C-myc,reduced
same,expression of CD44,CD44,reduced
same,caspase 3/7 activity,MDA-MB-231 cells [5],induced
same,caspase 3/7 activity,A549 cells [6],induced
same,concentration at which growth of the cell line was inhibited in a concentration-dependent manner,MCF-7 cells [7],≥ 10 µM
same,concentration at which growth of the cell line was inhibited in a concentration-dependent manner,MDA-MB-231 cells [8],≥ 10 µM
same,formation of apoptotic bodies,MDA-MB-231 cells [9],apoptotic bodies were formed
same,formation of apoptotic bodies,A549 cells [10],apoptotic bodies were formed
